Results taken from PubChem BioAssay (NCI).
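1) Cells in 96-well plates. 2) Compound, 48 h, 5 concentrations. 3) Linear interpolation between surrounding doses. 4) Unreached endpoint = highest concentration. Abbreviation: GI50, concentration required for 50% inhibition of growth. TGI: total growth inhibition.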 Where a SMILES comes first, the peptide text is derived from it. The star is where a group is joined. Fmoc = O=C(OCC1c2ccccc2-c2ccccc21)*; Boc = CC(C)(C)OC(=O)*

What was measured:
Assay in all cases: NCI tumour cell line growth inhibition, 48 h
SR leukemia = system: SR leukemia
HOP-92 NSCLC = system: HOP-92 NSCLC
SNB-75 CNS = system: SNB-75 CNS
EKVX NSCLC = system: EKVX NSCLC
NCI-H23 lung = system: NCI-H23 lung
RPMI-8226 leukemia = system: RPMI-8226 leukemia
SF-539 CNS = system: SF-539 CNS
SK-MEL-28 melanoma = system: SK-MEL-28 melanoma
SK-MEL-2 melanoma = system: SK-MEL-2 melanoma
SW-620 colon = system: SW-620 colon

Row | Structure (SMILES) | GI50 (SR leukemia) [µM] | TGI (SR leukemia) [µM] | GI50 (HOP-92 NSCLC) [µM] | TGI (HOP-92 NSCLC) [µM] | GI50 (SNB-75 CNS) [µM] | TGI (SNB-75 CNS) [µM] | GI50 (EKVX NSCLC) [µM] | TGI (EKVX NSCLC) [µM] | GI50 (NCI-H23 lung) [µM] | TGI (NCI-H23 lung) [µM] | GI50 (RPMI-8226 leukemia) [µM] | TGI (RPMI-8226 leukemia) [µM] | GI50 (SF-539 CNS) [µM] | TGI (SF-539 CNS) [µM] | GI50 (SK-MEL-28 melanoma) [µM] | TGI (SK-MEL-28 melanoma) [µM] | GI50 (SK-MEL-2 melanoma) [µM] | TGI (SK-MEL-2 melanoma) [µM] | GI50 (SW-620 colon) [µM] | TGI (SW-620 colon) [µM]
1 | O=C1/C(=C/c2ccc(Cl)cc2)N=C(c2ccccc2)N1CCc1cccs1 | 24.2 | > 100 | 3.49 | 38.5 | 50.9 | > 100 | 13.8 | > 100 | 20 | > 100 | 14.5 | 83.4 | 48.2 | > 100 | 62.8 | > 100 | 14 | > 100 | 30.6 | > 100
2 | CC(C)(C)c1cc(C2=NN(c3ccccc3)C(c3ccccc3)C2)cc(C(C)(C)C)c1O (stereo not given) | – | > 100 | – | > 100 | – | > 100 | – | > 100 | – | > 100 | – | > 100 | – | > 100 | – | > 100 | – | > 100 | – | > 100
3 | O=C(/C=C/c1cc(O)c(O)cc1O)OCCc1ccccc1 | – | 30.6 | – | 20.5 | – | > 100 | – | > 95.6 | – | 53.1 | – | > 46 | – | 44.5 | – | 39.3 | – | 47.2 | – | 21.2
4 | CCCCCCCCCCCCCC[S+](C)C | – | 2.35 | – | 3.67 | – | 3.51 | – | 9.87 | – | 4.09 | – | 2.65 | – | 2.79 | – | 8.5 | – | 5.13 | – | > 10
5 | CCCCN1C(=O)c2c(-c3sccc3N)sc(-c3sccc3N)c2C1=O | – | > 23.1 | – | > 100 | – | 34.6 | – | > 83.7 | – | > 100 | – | 55 | – | 32.8 | – | 36.7 | – | > 100 | – | > 100
6 | CC(=O)N(O)[C@@H]1CC[C@H](n2cnc3c(N)ncnc32)C1 | – | > 100 | – | > 100 | – | > 100 | – | > 100 | – | > 100 | – | > 100 | – | > 100 | – | > 100 | – | > 100 | – | > 100
7 | C#CC1(O)C(COP(=O)(O)OCC2OC(n3ccc(NCCCCCCCCCCCCCCCCCC)nc3=O)C(O)C2O)OC(n2ccc(N)nc2=O)C1O (stereo not given) | – | 11.7 | – | 59.8 | – | 45.9 | – | 54.1 | – | 55.8 | – | > 73.8 | – | 34.5 | – | 31.6 | – | 5.3 | – | > 50
8 | CC(C)(C)OC(=O)NCCCCC(NC(=O)OCC1c2ccccc2-c2ccccc21)C(=O)N1CCCC1C(=O)NCC(N)=O (stereo not drawn) (Fmoc-Lys(Boc)-Pro-Gly-NH2; configuration not given here) | – | 49.5 | – | 48.2 | – | > 100 | – | > 100 | – | > 100 | – | > 100 | – | > 100 | – | > 100 | – | > 100 | – | > 100
9 | Nc1nc(N)c2ncn(Cc3ccccc3CCl)c2n1 | – | > 100 | – | > 100 | – | > 100 | – | > 100 | – | > 100 | – | > 100 | – | > 100 | – | > 100 | – | > 100 | – | > 100
10 | COC(=O)C1CCC(=O)N1C(c1ccc(OC)cc1)c1ccc(OC)cc1 (stereo not given) | – | > 100 | – | > 100 | – | > 100 | – | > 100 | – | > 100 | – | > 100 | – | > 100 | – | > 100 | – | > 100 | – | > 100
11 | O=C(/C=C/c1ccc(/C=C/C(=O)c2ccc(O)cc2)cc1)c1ccc(O)cc1 | – | > 100 | – | > 100 | – | > 100 | – | > 100 | – | > 100 | – | > 100 | – | > 100 | – | > 100 | – | > 100 | – | > 100
12 | O=C1CCCC/C1=C\c1ccc(Br)cc1 | – | > 100 | – | 35.1 | – | 29.8 | – | 62.8 | – | 33.2 | – | 57.3 | – | 37.1 | – | 31.6 | – | 46.4 | – | > 100
13 | NCCCNC1(c2cc3ccccc3s2)CCCCC1 | – | 4.68 | – | 25.5 | – | 24.2 | – | 22.5 | – | 31.3 | – | 5.88 | – | 4.23 | – | 4.59 | – | 4.2 | – | 21.2
